From ChEMBL document CHEMBL6087460, “Generating a Peptide Library Using the Repeats of Amino Acid Scaffolds Created by Sliding the Framework of a 7-mer Human Chemerin Segment and Discovery of Potent Antibacterial and Antimycobacterial Peptides” (J Med Chem, 2025)
Active and inactive are the calls of the source. The rule behind the calls is not given here. Where a SMILES comes first, the peptide text is derived from it.

What was measured:
[1] = Drug localization in cytoplasm of Mycobacterium smegmatis at 1 ug/ml by confocal microscopy; format: ADME, subcellular; conditions: mycolicibacterium smegmatis; dose 1 µg/ml
[2] = Drug localization in cell membrane of Escherichia coli ATCC 25922 at 3 times MIC by confocal microscopy; format: ADME, cell membranes
Staphylococcus aureus [3] = test: Bactericidal activity against Staphylococcus aureus ATCC 25923 at MIC incubated for 45 mins by time kill assay; format: functional, organism-based
Staphylococcus aureus [4] = test: Disruption of plasma membrane integrity in Staphylococcus aureus ATCC 25923 by SYTOX-Green uptake assay; format: functional, organism-based
Staphylococcus aureus [5] = test: Induction of membrane depolarization in Staphylococcus aureus ATCC 25923 by diSC3-5 dye based analysis; format: functional, organism-based
Staphylococcus aureus [6] = test: Antibacterial activity against Staphylococcus aureus ATCC 25923 incubated for 16 to 18 hrs in presence of 10 percent human serum by broth dilution assay; format: functional; conditions: time 16-18 hrs
[7] = (§1) Cytotoxicity against mouse 3T3-L1 cells assessed as cell viability at 100 uM incubated for 24 hrs by MTT assay relative to control; format: toxicity, cell-based; conditions: 3T3-L1 cells, read-out: Activity
Escherichia coli [8] = test: Bactericidal activity against Escherichia coli ATCC 25922 incubated for 16 to 18 hrs; format: functional; conditions: time 16-18 hrs
[9] = Toxicity in BALB/c mouse assessed as animal survival at 15 mg/kg, iv administered thrice at 2 hrs interval measured after 7 days; format: organism-based; conditions: in vivo, 168 h, time 7 day
Escherichia coli [10] = test: Antibacterial activity against Escherichia coli ATCC 25922 infected in BALB/c mouse assessed as bacterial count in blood at 5 mg/kg, iv administered thrice at 1,3 and 5 hrs post-infection measured after 24 hrs post-last dose (Rvb ~ 9.6 x10^6 CFU/mL); format: functional; conditions: time 29 hrs
[11] = Retention time of compound by RP-HPLC method; format: physicochemical
Bacillus subtilis = test: Antibacterial activity against Bacillus subtilis 6633 incubated for 16 to 18 hrs by broth dilution assay; format: functional; conditions: time 16-18 hrs
Escherichia coli [12] = test: Induction of membrane depolarization in Escherichia coli ATCC 25922 by diSC3-5 dye based analysis; format: functional, organism-based
[13] = Toxicity in BALB/c mouse assessed as change in AST level at 15 mg/kg, iv administered thrice at 2 hrs interval measured after 7 days; format: organism-based; conditions: in vivo, 168 h, time 7 day
Escherichia coli [14] = test: Antibacterial activity against Escherichia coli ATCC 25922 incubated for 16 to 18 hrs in presence of 10 percent human serum by broth dilution assay; format: functional; conditions: time 16-18 hrs
Escherichia coli [15] = test: Antibacterial activity against Escherichia coli ATCC 25922 infected in BALB/c mouse assessed as bacterial count in spleen at 5 mg/kg, iv administered thrice at 1,3 and 5 hrs post-infection measured after 24 hrs post-last dose (Rvb ~ 1.9 x10^7 CFU/mL); format: functional; conditions: time 29 hrs
Pseudomonas aeruginosa = test: Antibacterial activity against Pseudomonas aeruginosa ATCC BAA-427 incubated for 16 to 18 hrs by broth dilution assay; format: functional; conditions: time 16-18 hrs
[16] = Toxicity in BALB/c mouse assessed as change in ALT level at 15 mg/kg, iv administered thrice at 2 hrs interval measured after 7 days; format: organism-based; conditions: in vivo, 168 h, time 7 day
[17] = Toxicity in BALB/c mouse infected with Escherichia coli ATCC 25922 assessed as animal survival at 2.5 mg/kg, iv administered thrice at 1,3 and 5 hrs post-infection measured after 7 days; format: organism-based; conditions: in vivo, 168 h, time 7 day
[18] = Toxicity in BALB/c mouse infected with Escherichia coli ATCC 25922 assessed as animal survival at 5 mg/kg, iv administered thrice at 1,3 and 5 hrs post-infection measured after 7 days; format: organism-based; conditions: in vivo, 168 h, time 7 day
Escherichia coli [19] = test: Antibacterial activity against Escherichia coli ATCC 25922 infected in BALB/c mouse assessed as bacterial load in blood at 5 mg/kg, iv administered thrice at 1,3 and 5 hrs post-infection measured after 24 hrs post-last dose (Rvb ~ 4 x10^6 CFU/mL); format: functional; conditions: time 29 hrs
Escherichia coli [20] = test: Disruption of plasma membrane integrity in Escherichia coli ATCC 25922 by SYTOX-Green uptake assay; format: functional, organism-based
[21] = Hemolytic activity in human RBC measured after 40 mins by absorbance based assay; format: toxicity, cell-based, Erythrocyte; conditions: human red blood cells
Staphylococcus aureus [22] = test: Antibacterial activity against Staphylococcus aureus ATCC 25923 incubated for 16 to 18 hrs by broth dilution assay; format: functional; conditions: time 16-18 hrs
Klebsiella pneumoniae = test: Antibacterial activity against Klebsiella pneumoniae ATCC 27736 incubated for 16 to 18 hrs by broth dilution assay; format: functional; conditions: time 16-18 hrs
Escherichia coli [23] = test: Disruption of membrane integrity in Escherichia coli ATCC 25922 by PI staining based analysis; format: functional, organism-based
Escherichia coli [24] = test: Antibacterial activity against Escherichia coli ATCC 25922 infected in BALB/c mouse assessed as bacterial count in kidney at 5 mg/kg, iv administered thrice at 1,3 and 5 hrs post-infection measured after 24 hrs post-last dose (Rvb ~ 1.8 x10^7 CFU/mL); format: functional; conditions: time 29 hrs
Staphylococcus aureus [25] = test: Antibacterial activity against methicillin-resistant Staphylococcus aureus 33591 incubated for 16 to 18 hrs by broth dilution assay; format: functional; conditions: time 16-18 hrs
Escherichia coli [26] = test: Antibacterial activity against Escherichia coli ATCC 25922 incubated for 16 to 18 hrs by broth dilution assay; format: functional; conditions: time 16-18 hrs
Escherichia coli [27] = test: Bactericidal activity against Escherichia coli ATCC 25922 at MIC incubated for 30 mins by time kill assay; format: functional, organism-based
Staphylococcus aureus [28] = test: Bactericidal activity against Staphylococcus aureus ATCC 25923 incubated for 16 to 18 hrs; format: functional; conditions: time 16-18 hrs
Escherichia coli [29] = test: Antibacterial activity against Escherichia coli ATCC 25922 infected in BALB/c mouse assessed as bacterial count in liver at 5 mg/kg, iv administered thrice at 1,3 and 5 hrs post-infection measured after 24 hrs post-last dose (Rvb ~ 2.3 x10^7 CFU/mL); format: functional; conditions: time 29 hrs
Escherichia coli [30] = test: Bactericidal activity against Escherichia coli ATCC 25922 at MIC incubated for 45 mins by time kill assay; format: functional, organism-based
[31] = Hemolytic activity in human RBC assessed as disruption of membrane integrity by Alexa Fluor-Annexin V staining based analysis; format: toxicity, cell-based; conditions: erythrocyte
[32] = (§2) Cytotoxicity against rat L6 cells assessed as cell viability at 100 uM incubated for 24 hrs by MTT assay relative to control; format: toxicity, cell-based; conditions: L6 cells, read-out: Activity
[33] = tested on: Mycolicibacterium smegmatis; test: Antitubercular activity against Mycobacterium smegmatis incubated for 24 hrs by rezasurin dye based assay; format: functional
Staphylococcus aureus [34] = test: Antibacterial activity against methicillin-resistant Staphylococcus aureus BAA-44 incubated for 16 to 18 hrs by broth dilution assay; format: functional; conditions: time 16-18 hrs
Staphylococcus aureus [35] = test: Disruption of membrane integrity in Staphylococcus aureus ATCC 25923 by PI staining based analysis; format: functional, organism-based
[36] = Hemolytic activity in human RBC at 100 uM measured after 40 mins by absorbance based assay relative to control; format: toxicity, cell-based, Erythrocyte
Escherichia coli [37] = test: Bactericidal activity against Escherichia coli ATCC 25922 at MIC incubated for 60 mins by time kill assay; format: functional, organism-based
3T3-L1 = test: as §1; format: toxicity, cell-based; conditions: 3t3-l1, 24 h, 100 µM
Staphylococcus aureus [38] = test: Bactericidal activity against Staphylococcus aureus ATCC 25923 at MIC incubated for 60 mins by time kill assay; format: functional, organism-based
L6 = test: as §2; format: toxicity, cell-based; conditions: l6, 24 h, 100 µM
[39] = Stability in 10 percent human serum assessed as compound remaining measured after 60 mins by RP-HPLC analysis; format: ADME, cell-free; conditions: 10% human serum, read-out: Stability

Compound | Activity (Staphylococcus aureus [4]) | Activity (Staphylococcus aureus [5]) | MIC (Staphylococcus aureus [6]) [µM] | MBC (Escherichia coli [8]) [µM] | Retention_time [11] [min] | MIC (Bacillus subtilis) [µM] | Activity (Escherichia coli [12]) | MIC (Escherichia coli [14]) [µM] | MIC (Pseudomonas aeruginosa) [µM] | Activity (Escherichia coli [20]) | HC50 at 40 min [21] [mM] | MIC (Staphylococcus aureus [22]) [µM] | MIC (Klebsiella pneumoniae) [µM] | Activity (Escherichia coli [23]) | MIC (Staphylococcus aureus [25]) [µM] | MIC (Escherichia coli [26]) [µM] | MBC (Staphylococcus aureus [28]) [µM] | Activity [31] | MIC [33] [µM] | MIC (Staphylococcus aureus [34]) [µM] | further results
CC(C)C[C@H](NC(=O)[C@@H](NC(=O)c1cc(C(=O)O)ccc1-c1c2ccc(=[N+](C)C)cc-2oc2cc(N(C)C)ccc12)C(C)C)C(=O)NCC(=O)N[C@@H](CCCNC(=N)N)C(=O)N[C@H](C(=O)N[C@@H](CC(C)C)C(=O)NCC(=O)N[C@@H](CCCNC(=N)N)C(=O)N[C@H](C(=O)N[C@@H](CC(C)C)C(=O)NCC(=O)N[C@@H](CCCNC(=N)N)C(=O)N[C@H](C(=O)N[C@@H](CC(C)C)C(=O)NCC(=O)N[C@@H](CCCNC(=N)N)C(=O)O)C(C)C)C(C)C)C(C)C.[Cl-] (HELM PEPTIDE1{[CN(C)c1ccc2c(-c3ccc(C(=O)O)cc3C(=O)[*:2])c3ccc(=[N+](C)C)cc-3oc2c1].V.L.G.R.V.L.G.R.V.L.G.R.V.L.G.R}$$$$V2.0) | – | – | – | – | – | – | – | – | – | – | – | – | – | – | – | – | – | – | – | – | Drug uptake [1]: Active; Drug uptake [2]: Active
H-KVLKVLKVLKVL-OH | Active | Active | 36.2 | 2.2 | 19.44 | 9 | Active | 2.2 | 9 | Active | 2 | 18.1 | 4.5 | Active | 9 | 1.1 | 18.1 | Non-toxic | > 10 | 2.3 | Activity (Staphylococcus aureus [3]): Active; viability at 24 h, 100 µM [7]: 75%; Activity [9]: Non-toxic; Activity (Escherichia coli [10]): 2656 CFU/ml; Activity [13]: Non-toxic; Activity (Escherichia coli [15]): 7800 CFU/ml; Activity [16]: Non-toxic; Survival [17]: 40%; Survival [18]: 80%; Activity (Escherichia coli [19]): 3400 CFU/ml; Activity (Escherichia coli [24]): 2.9 10^4CFU/ml; Activity (Escherichia coli [27]): Active; Emerged As Swiftest Molecule; Activity (Escherichia coli [29]): 9100 CFU/ml; Activity (Escherichia coli [30]): Active; viability at 24 h, 100 µM [32]: 75%; Activity (Staphylococcus aureus [35]): Active
H-RLVRLVRLVRLVRLV-OH | Active | Active | 3.4 | 6.8 | 20.78 | 1.7 | Active | 6.8 | 6.7 | Active | 0.232 | 1.7 | 1.7 | Active | 3.4 | 1.7 | 3.4 | Non-toxic | 5 | 1.7 | hemolysis at 40 min, 100 µM ([36]; human red blood cells, read-out: Activity): 20%; Activity (Escherichia coli [37]): Active; Exhibited Rapid Kinetics; Activity (3T3-L1): Toxic; Activity (Staphylococcus aureus [38]): Active; Exhibited Rapid Kinetics; Activity (L6): Toxic; Activity (Staphylococcus aureus [35]): Active
CC(C)C[C@H](NC(=O)[C@H](CCCNC(=N)N)NC(=O)CNC(=O)[C@@H](NC(=O)[C@H](CC(C)C)NC(=O)[C@H](CCCNC(=N)N)NC(=O)CNC(=O)[C@@H](NC(=O)[C@H](CC(C)C)NC(=O)[C@H](CCCNC(=N)N)NC(=O)CNC(=O)[C@@H](NC(=O)[C@H](CC(C)C)NC(=O)[C@H](CCCNC(=N)N)NC(=O)CNC(=O)c1cc(C(=O)O)ccc1-c1c2ccc(=[N+](C)C)cc-2oc2cc(N(C)C)ccc12)C(C)C)C(C)C)C(C)C)C(=O)N[C@H](C(=O)O)C(C)C.[Cl-] (HELM PEPTIDE1{[CN(C)c1ccc2c(-c3ccc(C(=O)O)cc3C(=O)[*:2])c3ccc(=[N+](C)C)cc-3oc2c1].G.R.L.V.G.R.L.V.G.R.L.V.G.R.L.V}$$$$V2.0) | – | – | – | – | – | – | – | – | – | – | – | – | – | – | – | – | – | – | – | – | Drug uptake [1]: Active; Drug uptake [2]: Active
H-RLRLRLRLRL-OH | Active | Active | 9.2 | 4.6 | 15.27 | 4.6 | Active | 4.6 | 18.3 | Active | 1.82 | 4.6 | 18.3 | Active | 18.3 | 2.3 | 9.2 | Non-toxic | 10 | 18.3 | Activity ([36]; erythrocyte, 40 min, 100 µM): Non-toxic; Activity (Escherichia coli [37]): Active; Exhibited Rapid Kinetics; Activity (3T3-L1): Toxic; Activity (Staphylococcus aureus [38]): Active; Exhibited Rapid Kinetics; Activity [9]: Toxic; Activity (Escherichia coli [10]): 2.4 10^4CFU/ml; Activity [13]: Non-toxic; remaining at 1 h [39]: 70%; Activity (Escherichia coli [15]): 6.8 10^4CFU/ml; Activity [16]: Non-toxic; Survival [17]: 20%; Survival [18]: 80%; Activity (Escherichia coli [19]): 7700 CFU/ml; Activity (Escherichia coli [24]): 2.6 10^4CFU/ml; Activity (Escherichia coli [29]): 2.7 10^4CFU/ml; Activity (L6): Toxic; Activity (Staphylococcus aureus [35]): Active
